Results on eight compounds are retold here after DBAASP.

Common to all, as to assay: ≥ marks a high value that may be exact or a test limit, other limits are often not marked, values filed in µg/mL are converted to µM
Test [1] deals with Bacillus subtilis 168.
Test [2] relates to Micrococcus luteus CCM 144.
Test [3] concerns Pseudomonas aeruginosa.
Test [4] concerns Staphylococcus aureus.
In test [5] the test system is Candida albicans F7-39/IDE99.
The subject of test [6] is Escherichia coli B.
The test system of test [7] is Salmonella enterica subsp. enterica serovar Typhimurium C77-31.
Test [8] relates to Streptococcus agalactiae CICC 10465.
The subject of test [9] is Escherichia coli ATCC 25922.
The subject of test [10] is Pseudomonas aeruginosa ATCC 27853.
The subject of test [11] is Staphylococcus epidermidis ATCC 12228.
For test [12], the system named is Salmonella enterica subsp. enterica serovar Typhimurium ATCC 14028.
The test system of test [13] is Staphylococcus aureus ATCC 29213.
Test [14] deals with Salmonella enterica subsp. enterica serovar Pullorum ATCC 7913.
Test [15] has as its system Escherichia coli UB1005.
Test [16] has as its system Staphylococcus aureus ATCC 25923.
The test system of test [17] is Streptococcus agalactiae.
Test [18] concerns Escherichia coli 078.
Test [19] concerns Lacticaseibacillus rhamnosus 7469.
Test [20] concerns Streptococcus thermophilus YM-C.
Test [21] has as its system Candida tropicalis IOC 4560.
Test [22] relates to Serratia marcescens ATCC 4112.
Test [23] concerns Bacillus megaterium ATCC 10778.
Test [24] deals with Micrococcus luteus A270.
The subject of test [25] is Escherichia coli SBS 363.
The test system of test [26] is Enterobacter cloacae beta-12.
The test system of test [27] is Candida albicans MDM8.
Test [28] deals with Bacillus subtilis ATCC 6633.

≈ marks a conversion by molar mass, not a printed value.

Take `CC[C@H](C)[C@H](NC(=O)[C@H](CC(C)C)NC(=O)[C@H](CCCCN)NC(=O)[C@@H](NC(=O)[C@@H](NC(=O)[C@H](Cc1cnc[nH]1)NC(=O)[C@@H]1CCCN1C(=O)[C@H](CC(C)C)NC(=O)[C@@H](NC(=O)[C@H](CCCCN)NC(=O)[C@H](C)NC(=O)[C@H](CC(C)C)NC(=O)[C@H](CC(C)C)NC(=O)[C@H](CCCCN)NC(=O)[C@H](C)NC(=O)[C@H](CCSC)NC(=O)CN)C(C)C)C(C)C)C(C)C)C(=O)N[C@@H](CCCCN)C(=O)O` [GMAKLLAKVLPHVVKLIK]: the MIC in test [1] is 1.3 µM (≈ 2.55 µg/mL); in [2], 0.8 µM (≈ 1.57 µg/mL); in test [3] it was 17.5 µM (≈ 34.3 µg/mL); in test [4], 2.7 µM (≈ 5.29 µg/mL); in test [5] it was 13.1 µM (≈ 25.7 µg/mL); in [6] it was 1.5 µM (≈ 2.94 µg/mL).
Consider `CC[C@H](C)[C@H](NC(=O)[C@H](CC(C)C)NC(=O)[C@@H](NC(=O)[C@@H](N)CC(=O)O)[C@@H](C)CC)C(=O)N[C@H](C(=O)N[C@H](C(=O)NCC(=O)NCC(=O)N[C@@H](CCCCN)C(=O)N[C@@H](CC(=O)O)C(=O)N[C@@H](CCCN=C(N)N)C(=O)N[C@@H](CCCCN)C(=O)N[C@@H](CCCCN)C(=O)N[C@@H](CCCN=C(N)N)C(=O)N[C@@H](CCCN=C(N)N)C(=O)N[C@@H](CCCN=C(N)N)C(N)=O)C(C)C)[C@@H](C)CC` [DILIIVGGKDRKKRRR], for which the MIC is at least 64 µM in [7]; 4 µM (≈ 7.69 µg/mL) in [8]; 8 µM (≈ 15.4 µg/mL) in test [9]; above 64 µM in test [10]; 4 µM (≈ 7.69 µg/mL) in test [11]; above 64 µM in [12]. The MIC was 4 µM (≈ 7.69 µg/mL) in test [13]; 8 µM (≈ 15.4 µg/mL) in test [14]; at least 32 µM in [15]; above 64 µM in [16]; 8 µM (≈ 15.4 µg/mL) in test [17]; at least 32 µM in test [18]. In addition, the MIC in test [19] and in [20] was at least 64 µM in each case.
As for `CC[C@H](C)[C@H](NC(=O)[C@H](CC(C)C)NC(=O)[C@@H](NC(=O)[C@@H](N)CC(=O)O)[C@@H](C)CC)C(=O)N[C@H](C(=O)N[C@H](C(=O)NCC(=O)NCC(=O)N[C@@H](CCCN=C(N)N)C(=O)N[C@@H](CCCN=C(N)N)C(=O)N[C@@H](CCCN=C(N)N)C(=O)N[C@@H](CCCN=C(N)N)C(=O)N[C@@H](CCCN=C(N)N)C(=O)N[C@@H](CCCN=C(N)N)C(=O)N[C@@H](CCCN=C(N)N)C(=O)N[C@@H](CCCN=C(N)N)C(N)=O)C(C)C)[C@@H](C)CC` [DILIIVGGRRRRRRRR], the MIC in test [7] was at least 64 µM; in test [8] it was 4 µM (≈ 8.19 µg/mL); in [9], 4 µM (≈ 8.19 µg/mL); in [10] it was 8 µM (≈ 16.4 µg/mL); in test [11], 8 µM (≈ 16.4 µg/mL); in test [12], above 64 µM. For the same compound, the MIC in test [13] is 2 µM (≈ 4.1 µg/mL); in test [14], 8 µM (≈ 16.4 µg/mL); in test [15], 8 µM (≈ 16.4 µg/mL); in test [16], 4 µM (≈ 8.19 µg/mL); in test [17] it was 5.66 µM (≈ 11.6 µg/mL); in test [18], at least 32 µM. The MIC in test [19] and in test [20] was at least 64 µM throughout.
On to `CC(C)C[C@H](NC(=O)[C@H](C)NC(=O)[C@H](CCCCN)NC(=O)[C@H](CC(C)C)NC(=O)[C@@H](N)Cc1ccccc1)C(=O)N[C@@H](Cc1c[nH]c2ccccc12)C(=O)N[C@@H](CCCCN)C(=O)N[C@H](C(=O)N[C@@H](C)C(=O)N[C@@H](CCCCN)C(=O)N[C@@H](CO)C(=O)N[C@H](C(=O)N[C@@H](Cc1ccccc1)C(N)=O)C(C)C)C(C)C` [FLKALWKVAKSVF], for which the MIC was 0.8 µM (≈ 1.23 µg/mL) in test [21]; 3.1 µM (≈ 4.76 µg/mL) in test [11]; 0.1 µM (≈ 0.154 µg/mL) in test [22]; 0.8 µM (≈ 1.23 µg/mL) in [13]; 0.4 µM (≈ 0.614 µg/mL) in test [23]; 0.4 µM (≈ 0.614 µg/mL) in [24]. Moreover, the MIC in test [25] was determined as 1.6 µM (≈ 2.46 µg/mL); in test [26], 3.1 µM (≈ 4.76 µg/mL); in [27] it was 1.6 µM (≈ 2.46 µg/mL).
Regarding `CC[C@H](C)[C@H](NC(=O)[C@H](CCCCN)NC(=O)CNC(=O)[C@H](Cc1c[nH]c2ccccc12)NC(=O)[C@H](CC(N)=O)NC(=O)[C@@H](N)CC(C)C)C(=O)N[C@@H](CC(C)C)C(=O)N[C@@H](CCCCN)C(=O)N[C@@H](Cc1cnc[nH]1)C(=O)N[C@H](C(=O)N[C@H](C(=O)N[C@@H](CCCCN)C(N)=O)[C@@H](C)CC)[C@@H](C)CC` [LNWGKILKHIIK], the MIC in test [1] came to 1.7 µM (≈ 2.49 µg/mL); in test [2] it was 2.2 µM (≈ 3.22 µg/mL); in [3], 20.8 µM (≈ 30.4 µg/mL); in test [4], 8.7 µM (≈ 12.7 µg/mL); in [5], 7.3 µM (≈ 10.7 µg/mL); in test [6], 4 µM (≈ 5.85 µg/mL).
With `NCCCC[C@H](NC(=O)[C@H](CCCCN)NC(=O)[C@H](CCCN=C(N)N)NC(=O)[C@H](CCC(=O)O)NC(=O)[C@@H](N)CCCCN)C(=O)N[C@@H](CCCN=C(N)N)C(=O)N[C@@H](CCCN=C(N)N)C(=O)N[C@@H](CCCN=C(N)N)C(N)=O` [KERKKRRR], the MIC is at least 64 µM in test [7]; at least 64 µM in test [8]; above 64 µM in [9]; above 64 µM in test [10]; above 64 µM in [11]; above 64 µM in [12]. The MIC in [13] was above 64 µM; in test [14] it was at least 64 µM; in test [15], at least 64 µM; in test [16] it was above 64 µM; in test [17], at least 64 µM; in [18], at least 64 µM. The MIC in test [19] and in test [20] was at least 64 µM in each case.
As for `CC[C@H](C)[C@H](NC(=O)[C@H](CC(C)C)NC(=O)[C@@H](NC(=O)[C@@H](N)CC(=O)O)[C@@H](C)CC)C(=O)N[C@H](C(=O)N[C@H](C(=O)NCC(=O)NCC(=O)N[C@@H](CCCCN)C(=O)N[C@@H](CCCN=C(N)N)C(=O)N[C@@H](CCCN=C(N)N)C(=O)N[C@@H](CCCN=C(N)N)C(N)=O)C(C)C)[C@@H](C)CC` [DILIIVGGKRRR], the MIC was at least 64 µM in test [7]; 8 µM (≈ 11.2 µg/mL) in test [8]; above 64 µM in [9]; above 64 µM in test [10]; above 64 µM in [11]; above 64 µM in test [12]. In addition, the MIC in [13] is above 64 µM; in [14], at least 64 µM; in [15] it was at least 64 µM; in [16] it was above 64 µM; in [17], 5.66 µM (≈ 7.89 µg/mL); in test [18], at least 64 µM. For the same compound, the MIC in test [19] and in test [20] was at least 64 µM each time.
With `CC(C)C[C@H](NC(=O)[C@H](C)NC(=O)CNC(=O)[C@H](CC(C)C)NC(=O)[C@@H](N)Cc1ccccc1)C(=O)N[C@@H](Cc1c[nH]c2ccccc12)C(=O)N[C@@H](CC(N)=O)C(=O)N1CCC[C@H]1C(=O)N[C@@H](C)C(=O)N[C@@H](CCCCN)C(=O)N[C@@H](CO)C(=O)N[C@H](C(=O)N[C@@H](Cc1ccccc1)C(N)=O)C(C)C` [FLGALWNPAKSVF], the MIC is at least 50 µM in [21]; at least 50 µM in test [28]; above 50 µM in test [10]; 12.5 µM (≈ 18.1 µg/mL) in [22]; above 50 µM in test [13]; at least 50 µM in test [23]. Also, the MIC in test [24] was 25 µM (≈ 36.2 µg/mL); in test [25], at least 50 µM; in test [26], at least 50 µM; in [27], at least 50 µM.

As usually defined, the MIC is the lowest concentration that inhibits growth of the organism. A high value points to weaker potency.
